test system: p-IKKa levels in L363 (NIK translocated multiple myeloma) cells; assay: Assay 2: Effect of compounds on p-IKKa levels in L363 (NIK translocated multiple myeloma) cells; assay type: cell-based; conditions: Homo sapiens, L-363, 6 h, read-out: Assay 2 IC50 (nM), p-IKKa (Ser 176/180) in BAFF stimulated L363 cells with MG132, 6 h; average if tested more than once
In short: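 L363 cells incubated overnight ± 250 ng/ml BAFF, then 6 h at 37 °C with compound (0.3% DMSO) ± 10 μM MG132. Lysates assayed for p-IKKa (Ser176/180) by AlphaLISA SureFire. IC50 from sigmoidal fit of % inhibition normalized to BAFF/MG132-stimulated and unstimulated controls.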

Structure (SMILES) | IC50 [nM]
Cc1noc(C)c1Nc1nccc(-c2cccc(-c3cc([C@]4(O)CCN(C)C4=O)on3)n2)n1 [Example 236, (R)-3-(3-(6-(2-((3,5-Dimethylisoxazol-4-yl)amino)pyrimidin-4-yl)pyridin-2-yl)isoxazol-5-yl)-3-hydroxy-1-methylpyrrolidin-2-one] | 50 to 500
CCn1ccc(Nc2nccc(-c3cccc(-c4cc([C@]5(O)CCN(C)C5=O)no4)n3)n2)n1 [Example 237, (R)-3-(5-(6-(2-((1-Ethyl-1H-pyrazol-3-yl)amino)pyrimidin-4-yl)pyridin-2-yl)isoxazol-3-yl)-3-hydroxy-1-methylpyrrolidin-2-one] | < 50
Cc1c(Nc2nccc(-c3cccc(-c4cc([C@]5(O)CCN(C)C5=O)no4)n3)n2)cnn1C [Example 238, (R)-3-(5-(6-(2-((1,5-Dimethyl-1H-pyrazol-4-yl)amino)pyrimidin-4-yl)pyridin-2-yl)isoxazol-3-yl)-3-hydroxy-1-methylpyrrolidin-2-one] | < 50
CN1CC(F)(F)[C@@](O)(c2cc(-c3cccc(-c4ccnc(Nc5cnn6c5CCCC6)n4)n3)no2)C1=O [Example 239, (R)-4,4-Difluoro-3-hydroxy-1-methyl-3-(3-(6-(2-((4,5,6,7-tetrahydropyrazolo[1,5-a]pyridin-3-yl)amino)pyrimidin-4-yl)pyridin-2-yl)isoxazol-5-yl)pyrrolidin-2-one] | 50 to 500
CN1C(=O)[C@](O)(c2cc(-c3cccc(-c4ccnc(Nc5cnn(C)c5)n4)n3)no2)[C@H]2C[C@H]21 [Example 240, (1R,4R,5S)-4-Hydroxy-2-methyl-4-(3-(6-(2-((1-methyl-1H-pyrazol-4-yl)amino)pyrimidin-4-yl)pyridin-2-yl)isoxazol-5-yl)-2-azabicyclo[3.1.0]hexan-3-one] | 50 to 500
Cc1c(Nc2nccc(-c3cccc(-c4cc([C@@]5(O)C(=O)N(C)[C@@H]6C[C@@H]65)on4)n3)n2)cnn1C [Example 241, (1R,4R,5S)-4-(3-(6-(2-((1,5-Dimethyl-1H-pyrazol-4-yl)amino)pyrimidin-4-yl)pyridin-2-yl)isoxazol-5-yl)-4-hydroxy-2-methyl-2-azabicyclo[3.1.0]hexan-3-one] | 50 to 500
Cc1c(Nc2nccc(-c3cccc(-c4cc([C@@]5(O)C(=O)N(C)CC5(F)F)on4)n3)n2)cnn1CC(C)(C)O [Example 242, (R)-4,4-Difluoro-3-hydroxy-3-(3-(6-(2-((1-(2-hydroxy-2-methylpropyl)-5-methyl-1H-pyrazol-4-yl)amino)pyrimidin-4-yl)pyridin-2-yl)isoxazol-5-yl)-1-methylpyrrolidin-2-one] | 50 to 500
CN1CC(F)(F)[C@@](O)(c2cc(-c3cccc(-c4ccnc(Nc5cnn6c5CCC6)n4)n3)no2)C1=O [Example 243, (R)-3-(3-(6-(2-((5,6-Dihydro-4H-pyrrolo[1,2-b]pyrazol-3-yl)amino)pyrimidin-4-yl)pyridin-2-yl)isoxazol-5-yl)-4,4-difluoro-3-hydroxy-1-methylpyrrolidin-2-one] | < 50
Cc1cccc(Nc2nccc(-c3cccc(-c4cc([C@]5(O)CCN(C)C5=O)on4)n3)n2)n1 [Example 244, (R)-3-Hydroxy-1-methyl-3-(3-(6-(2-((6-methylpyridin-2-yl)amino)pyrimidin-4-yl)pyridin-2-yl)isoxazol-5-yl)pyrrolidin-2-one] | 50 to 500
Cc1cncc(Nc2nccc(-c3cccc(-c4cc([C@]5(O)CCN(C)C5=O)on4)n3)n2)c1 [Example 245, (R)-3-Hydroxy-1-methyl-3-(3-(6-(2-((5-methylpyridin-3-yl)amino)pyrimidin-4-yl)pyridin-2-yl)isoxazol-5-yl)pyrrolidin-2-one] | > 500
Cc1cnccc1Nc1nccc(-c2cccc(-c3cc([C@]4(O)CCN(C)C4=O)on3)n2)n1 [Example 246, (R)-3-Hydroxy-1-methyl-3-(3-(6-(2-((3-methylpyridin-4-yl)amino)pyrimidin-4-yl)pyridin-2-yl)isoxazol-5-yl)pyrrolidin-2-one] | > 500
CN1CC[C@@](O)(c2cc(-c3cccc(-c4ccnc(Nc5cccnc5)n4)n3)no2)C1=O [Example 247, (R)-3-Hydroxy-1-methyl-3-(3-(6-(2-(pyridin-3-ylamino)pyrimidin-4-yl)pyridin-2-yl)isoxazol-5-yl)pyrrolidin-2-one] | > 500
CN1CC[C@@](O)(c2cc(-c3cccc(-c4ccnc(Nc5ccccn5)n4)n3)no2)C1=O [Example 248, (R)-3-Hydroxy-1-methyl-3-(3-(6-(2-(pyridin-2-ylamino)pyrimidin-4-yl)pyridin-2-yl)isoxazol-5-yl)pyrrolidin-2-one] | 50 to 500
CN1CC[C@@](O)(c2cc(-c3cccc(-c4ccnc(Nc5ccncc5)n4)n3)no2)C1=O [Example 249, (R)-3-Hydroxy-1-methyl-3-(3-(6-(2-(pyridin-4-ylamino)pyrimidin-4-yl)pyridin-2-yl)isoxazol-5-yl)pyrrolidin-2-one] | < 50
CCn1cc(Nc2nccc(-c3cccc(-c4cc([C@]5(O)CCN(C)C5=O)on4)n3)n2)c(C)n1 [Example 250, (R)-3-(3-(6-(2-((1-Ethyl-3-methyl-1H-pyrazol-4-yl)amino)pyrimidin-4-yl)pyridin-2-yl)isoxazol-5-yl)-3-hydroxy-1-methylpyrrolidin-2-one] | < 50
CN1CC[C@@](O)(c2cn(-c3cccc(-c4ccnc(Nc5cnn6c5CCCC6)n4)n3)nn2)C1=O [Example 251, (R)-3-Hydroxy-1-methyl-3-(1-(6-(2-((4,5,6,7-tetrahydropyrazolo[1,5-a]pyridin-3-yl)amino)pyrimidin-4-yl)pyridin-2-yl)-1H-1,2,3-triazol-4-yl)pyrrolidin-2-one] | < 50
Cc1nn(C2CCN(C)CC2)cc1Nc1nccc(-c2cccc(-c3cc([C@]4(O)CCN(C)C4=O)on3)n2)n1 [Example 252] | 50 to 500
CCn1ccc(Nc2nccc(-c3cccc(-n4cc([C@]5(O)CCN(C)C5=O)nn4)n3)n2)n1 [Example 253, (3R)-3-[1-[6-[2-[(1-Ethylpyrazol-3-yl)amino]pyrimidin-4-yl]-2-pyridyl]triazol-4-yl]-3-hydroxy-1-methyl-pyrrolidin-2-one] | < 50
CN1CC[C@@](O)(c2cc(-c3cccc(-c4ccnc(Nc5ccc(F)cn5)n4)n3)no2)C1=O [Example 254, (R)-3-(3-(6-(2-((5-Fluoropyridin-2-yl)amino)pyrimidin-4-yl)pyridin-2-yl)isoxazol-5-yl)-3-hydroxy-1-methylpyrrolidin-2-one] | 50 to 500
COc1ccc(Nc2nccc(-c3cccc(-c4cc([C@]5(O)CCN(C)C5=O)on4)n3)n2)nn1 [Example 255, (R)-3-Hydroxy-3-(3-(6-(2-((6-methoxypyridazin-3-yl)amino)pyrimidin-4-yl)pyridin-2-yl)isoxazol-5-yl)-1-methylpyrrolidin-2-one] | 50 to 500
Cc1ccc(Nc2nccc(-c3cccc(-c4cc([C@]5(O)CCN(C)C5=O)on4)n3)n2)nn1 [Example 256, (R)-3-Hydroxy-1-methyl-3-(3-(6-(2-((6-methylpyridazin-3-yl)amino)pyrimidin-4-yl)pyridin-2-yl)isoxazol-5-yl)pyrrolidin-2-one] | 50 to 500
CN1CC[C@@](O)(c2cc(-c3cccc(-c4ccnc(Nc5ccnc6c5CCO6)n4)n3)no2)C1=O [Example 257, (R)-3-(3-(6-(2-((2,3-Dihydrofuro[2,3-b]pyridin-4-yl)amino)pyrimidin-4-yl)pyridin-2-yl)isoxazol-5-yl)-3-hydroxy-1-methylpyrrolidin-2-one] | < 50
CN1CC[C@@](O)(c2cc(-c3cccc(-c4ccnc(Nc5nc(CN6CCCC6)cs5)n4)n3)no2)C1=O [Example 258, (R)-3-Hydroxy-1-methyl-3-(3-(6-(2-((4-(pyrrolidin-1-ylmethyl)thiazol-2-yl)amino)pyrimidin-4-yl)pyridin-2-yl)isoxazol-5-yl)pyrrolidin-2-one] | < 50
CN1CC[C@@](O)(c2cc(-c3cccc(-c4ccnc(Nc5cnn6c5CCCC6)n4)n3)no2)C1=O [Example 259, (R)-3-Hydroxy-1-methyl-3-(3-(6-(2-((4,5,6,7-tetrahydropyrazolo[1,5-a]pyridin-3-yl)amino)pyrimidin-4-yl)pyridin-2-yl)isoxazol-5-yl)pyrrolidin-2-one] | < 50
COCc1ccnc(Nc2nccc(-c3cccc(-c4cc([C@]5(O)CCN(C)C5=O)on4)n3)n2)c1 [Example 260, (R)-3-Hydroxy-3-(3-(6-(2-((4-(methoxymethyl)pyridin-2-yl)amino)pyrimidin-4-yl)pyridin-2-yl)isoxazol-5-yl)-1-methylpyrrolidin-2-one] | < 50
CCn1cc(Nc2nccc(-c3cccc(-c4cc([C@@]5(O)C(=O)N(C)CC5(F)F)on4)n3)n2)cn1 [Example 261, (R)-3-(3-(6-(2-((1-Ethyl-1H-pyrazol-4-yl)amino)pyrimidin-4-yl)pyridin-2-yl)isoxazol-5-yl)-4,4-difluoro-3-hydroxy-1-methylpyrrolidin-2-one] | < 50
CN1CC[C@@](O)(c2cc(-c3cccc(-c4ccnc(Nc5cn(C)nc5F)n4)n3)no2)C1=O [Example 262, (R)-3-(3-(6-(2-((3-Fluoro-1-methyl-1H-pyrazol-4-yl)amino)pyrimidin-4-yl)pyridin-2-yl)isoxazol-5-yl)-3-hydroxy-1-methylpyrrolidin-2-one] | < 50
CN1CC[C@@](O)(c2cc(-c3cccc(-c4ccnc(Nc5ccn(C)n5)n4)n3)on2)C1=O [Example 263, (R)-3-Hydroxy-1-methyl-3-(5-(6-(2-((1-methyl-1H-pyrazol-3-yl)amino)pyrimidin-4-yl)pyridin-2-yl)isoxazol-3-yl)pyrrolidin-2-one] | < 50
CN1CC[C@@](O)(c2cc(-c3cccc(-c4ccnc(Nc5cnn(C6COC6)c5)n4)n3)no2)C1=O [Example 264, (R)-3-Hydroxy-1-methyl-3-(3-(6-(2-((1-(oxetan-3-yl)-1H-pyrazol-4-yl)amino)pyrimidin-4-yl)pyridin-2-yl)isoxazol-5-yl)pyrrolidin-2-one] | < 50
